In patent US5187171A (G. D. Searle & Co., priority 1989, dated 1993):

Tests used:
[1] = biological target: T1, NMDA receptor-associated glycine recognition site ("Glycine B receptor") (Rattus norvegicus, UniProt P35439); assay: TCP modulation assay (stimulation of [3H]TCP binding); type: biochemical; settings: basal [3H]TCP binding
T1 construct: synaptic plasma membranes (SPM) prepared from rat forebrain; from tissue; host or cells: rat forebrain (male Sprague-Dawley, animals from Sasco) synaptic plasma membranes, Triton X-100 washed
Procedure: [^3 H]TCP binding was performed using Triton X-100 washed synaptic plasma membranes (SPM) prepared from rat forebrain (30-45 day old, male Sprague-Dawley; Sasco, St. Charles, Mo.) as described previously [J. W. Thomas, W. F. Hood, J. B. Monahan, P. C. Contreras and T. L. O'Donohue, Brain Res., 442, 396-398 (1988)]. […] The samples were then filtered through glass fiber filters (Schleicher and Schuell #32) which were pretreated with 0.05% (v/v) polyethylenimine. The filters were washed and the radioactivity quantitated by liquid scintillation spectrometry. […] The EC50 values for the stimulation of [^3 H]TCP binding were determined using a four parameter logistic regression analysis.

[2] = system: mentally disturbed patients; settings: 500 mg per day, cited from earlier work

With `N[C@@H]1CONC1=O` [D-cycloserine, 4-amino-3-isoxazolidone] as the molecule, how does the “Maximal stimulation of [3H]TCP binding compared with glycine and D-serine” value [1] read?
Its value is “significantly less than that produced by both glycine and D-serine”.

What about the Clinical response ([2]; mentally disturbed patients) of the same molecule?
Its Clinical response is “improvements in depression, insomnia, anexoria or tension were found for some patients”.

And the “Clinical response of patients suffering from severe neurosis or psychosis” value [2]?
Its value is “responded poorly”.
